Results as given in BindingDB's records for doi:10.1021/jm500801r (Southern Research Institute, 2014).

Assay: Antagonist activity against human D3R expressed in CHO cells assessed as inhibition of quinpirole-induced mitogenesis after 16 hrs by [3H]thymidine uptake assay

In order of rising IC50:
1. COc1ccccc1N1CCN(CCCCNC(=O)c2cn3ccccc3n2)CC1  3 nM
2. O=C(NCCCCN1CCN(c2cccc(Cl)c2Cl)CC1)c1cn2ccccc2n1  7.2 nM
3. CC(C)(C)c1nc(N2CCN(CCCCNC(=O)c3nc4ccccc4[nH]3)CC2)cc(C(F)(F)F)n1  208 nM
4. O=C(NCCCCN1CCN(c2ncnc3ccccc23)CC1)c1cn2ccccc2n1  940 nM
